According to US11865182B2, “Product and process for employing GC7 (N1-guanyl-1,7-diaminoheptane) based antigen binding conjugates in cancer therapy” (priority 2017, dated 2024):

Tested on: bi-lateral subcutaneous tumors derived from 779E cells
Assay: in-vivo analysis of ADCs cytotoxic effect in subcutaneous mouse model (loss of GFP fluorescence signal, IVIS imaging)
Conditions: nude mice, 779E subcutaneous tumors, tail vein injection, after 12 days
Experimental: After purification via gel chromatography, where the cytotoxicity effect of the drug on the eIF5A positive tumor cell compared to eIF5A negative cells was determined by measuring the loss of fluorescence signal of the GFP tagged tumor cells after administration of the ADC in vivo via tail vein injection in mice using an IVIS Spectrum in vivo imaging system.

N=C(N)NCCCCCCCN [GC7, N1-guanyl-1,7-diaminoheptane]
tumor growth inhibition: 0.4%
